ChEMBL document CHEMBL2040720, “Potent CXCR4 antagonists containing amidine type Peptide bond isosteres” (ACS Med Chem Lett, 2011)
The source made the active and inactive calls. The rule behind the calls is not given here.

Columns and labels:
[1] = target: C-X-C chemokine receptor type 4 (Homo sapiens, UniProt P61073); test: Displacement of [125I]-SDF-1alpha from CXCR4 receptor expressed in HEK293 cells after 1 hr by scintillation counting; type: cell-based
HeLa = test: Cytotoxicity against human HeLa cells at 10 uM by MAGI assay; type: cell-based
[2] = target: Atypical chemokine receptor 3 (Homo sapiens) (UniProt P25106); test: Inhibition of CXCR7 interaction with SDF1alpha
[3] = system: Human immunodeficiency virus 1; test: Antiviral activity against Human immunodeficiency virus 1 NL4.3 infected in human HeLa cells assessed as inhibition of viral replication after 48 hrs by MAGI assay; type: functional, organism-based; conditions: Human immunodeficiency virus 1, NL4.3, HeLa
[4] = system: Human immunodeficiency virus 1; test: Antiviral activity against CCR5-tropic Human immunodeficiency virus 1 Ba-L infected in human HeLa cells assessed as inhibition of viral replication at 10 uM after 48 hrs by MAGI assay; type: functional, organism-based
[5] = system: Human immunodeficiency virus 1; test: Antiviral activity against Human immunodeficiency virus 1 3B infected in human HeLa cells assessed as inhibition of viral replication after 48 hrs by MAGI assay; type: functional, organism-based

Chain of Atypical chemokine receptor 3 (Homo sapiens) (P25106 whole entry): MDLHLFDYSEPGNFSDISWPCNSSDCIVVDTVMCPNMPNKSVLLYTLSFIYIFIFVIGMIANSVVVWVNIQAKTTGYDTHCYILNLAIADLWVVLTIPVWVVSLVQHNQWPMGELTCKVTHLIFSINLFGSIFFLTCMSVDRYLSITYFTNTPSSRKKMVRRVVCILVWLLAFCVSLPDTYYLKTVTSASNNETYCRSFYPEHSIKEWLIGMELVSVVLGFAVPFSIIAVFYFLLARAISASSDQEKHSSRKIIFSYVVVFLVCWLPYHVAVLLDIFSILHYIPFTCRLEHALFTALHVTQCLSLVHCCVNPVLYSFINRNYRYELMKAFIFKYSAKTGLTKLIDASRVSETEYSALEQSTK
Chain of C-X-C chemokine receptor type 4 (P61073 whole entry): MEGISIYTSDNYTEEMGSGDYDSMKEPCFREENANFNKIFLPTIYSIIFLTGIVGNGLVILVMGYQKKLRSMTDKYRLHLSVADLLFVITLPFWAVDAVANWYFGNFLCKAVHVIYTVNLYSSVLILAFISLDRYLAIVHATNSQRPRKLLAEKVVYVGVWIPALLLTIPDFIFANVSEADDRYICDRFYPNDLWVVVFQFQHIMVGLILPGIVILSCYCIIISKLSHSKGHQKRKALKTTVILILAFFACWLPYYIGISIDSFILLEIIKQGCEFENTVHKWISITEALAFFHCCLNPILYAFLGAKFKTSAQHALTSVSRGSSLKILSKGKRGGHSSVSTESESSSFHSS

| Structure (SMILES) | IC50 [1] [nM] | inhibition [2] | EC50 [3] [nM] | EC50 [5] [nM] | Activity (HeLa) | Activity [4] |
| --- | --- | --- | --- | --- | --- | --- |
| N=C(N)NCCC[C@@H]1NC(=O)[C@H](CCCNC(=N)N)NC(=O)[C@@H](Cc2ccc(O)cc2)NC(=N)CNC(=O)[C@H](Cc2ccc3ccccc3c2)NC1=O | – | inactive | 1.3 | 0.61 | – | inactive |
| N=C(N)NCCC[C@@H]1NC(=O)[C@H](CCCNC(=N)N)NC(=O)[C@@H](Cc2ccc(O)cc2)NC(=O)CNC(=O)[C@H](Cc2ccc3ccccc3c2)NC1=O | – | – | 21 | 21 | – | inactive |
| N=C(N)NCCC[C@@H]1NC(=O)[C@@H](Cc2ccc(O)cc2)NC(=O)CNC(=O)[C@H](Cc2ccc3ccccc3c2)NC(=O)[C@H](CCCNC(=N)N)NC1=N | – | inactive | 1.9 | 1.2 | – | inactive |
| CN1C(=O)[C@@H](Cc2ccc(O)cc2)NC(=O)CNC(=O)[C@H](Cc2ccc3ccccc3c2)NC(=O)[C@H](CCCNC(=N)N)NC(=O)[C@H]1CCCNC(=N)N | – | – | 7.6 | 7.6 | – | inactive |
| N=C(N)NCCC[C@@H]1NC(=O)[C@H](CCCNC(=N)N)NC(=O)[C@@H](Cc2ccc(O)cc2)NC(=O)CNC(=N)[C@@H](Cc2ccc3ccccc3c2)NC1=O | – | inactive | 2.2 | 2 | – | inactive |
| CN1C(=O)[C@@H](Cc2ccc(O)cc2)NC(=O)CNC(=O)[C@H](Cc2ccc3ccccc3c2)NC(=O)[C@H](CCCN=C(N)N)NC(=O)[C@H]1CCCN=C(N)N | 37 | – | – | – | – | – |
| N=C(N)NCCC[C@@H]1NC(=O)[C@H](CCCNC(=N)N)NC(=O)[C@@H](Cc2ccc(O)cc2)NC(=O)CNC(=O)[C@H](Cc2ccc3ccccc3c2)NC1=N | – | inactive | 4.4 | 6.3 | – | inactive |
| N=C(N)NCCC[C@@H]1NC(=O)[C@H](CCCNC(=N)N)NC(=O)[C@@H](Cc2ccc(O)cc2)NC(=O)CNC(=N)[C@H](Cc2ccc3ccccc3c2)NC1=O | 4.2 | inactive | 1.4 | 1 | Non-toxic | inactive |
| N=C(N)NCCC[C@@H]1NC(=N)[C@H](Cc2ccc(O)cc2)NC(=O)CNC(=O)[C@H](Cc2ccc3ccccc3c2)NC(=O)[C@H](CCCNC(=N)N)NC1=O | – | inactive | 248 | 238 | – | inactive |
| N=C(N)NCCC[C@@H]1NC(=N)[C@@H](Cc2ccc(O)cc2)NC(=O)CNC(=O)[C@H](Cc2ccc3ccccc3c2)NC(=O)[C@H](CCCNC(=N)N)NC1=O | – | inactive | 300 | 258 | – | inactive |

The next lines start with results.

| IC50 [1] [nM] | inhibition [2] | EC50 [3] [nM] | EC50 [5] [nM] | Structure (SMILES) | Activity (HeLa) | Activity [4] |
| --- | --- | --- | --- | --- | --- | --- |
| 16 | – | – | – | NC(N)=NCCC[C@@H]1N=C(N)[C@H](CCCN=C(N)N)NC(=O)[C@@H](Cc2ccc(O)cc2)NC(=O)CNC(=O)[C@H](Cc2ccc3ccccc3c2)NC1=O | Non-toxic | – |
| 11 | – | – | – | NC(N)=NCCC[C@@H]1NC(=O)[C@@H](Cc2ccc(O)cc2)NC(=O)CNC(=O)[C@H](Cc2ccc3ccccc3c2)N=C(N)[C@H](CCCN=C(N)N)NC1=O | Non-toxic | – |
| 679 | – | – | – | NC(N)=NCCC[C@@H]1N=C(N)[C@@H](Cc2ccc(O)cc2)NC(=O)CNC(=O)[C@H](Cc2ccc3ccccc3c2)NC(=O)[C@H](CCCN=C(N)N)NC1=O | Non-toxic | – |
| 9.4 | – | – | – | NC(N)=NCCC[C@@H]1NC(=O)[C@H](CCCN=C(N)N)NC(=O)[C@@H](Cc2ccc(O)cc2)N=C(N)CNC(=O)[C@H](Cc2ccc3ccccc3c2)NC1=O | Non-toxic | – |
| 334 | – | – | – | NC(N)=NCCC[C@@H]1N=C(N)[C@H](Cc2ccc(O)cc2)NC(=O)CNC(=O)[C@H](Cc2ccc3ccccc3c2)NC(=O)[C@H](CCCN=C(N)N)NC1=O | Non-toxic | – |
| 4.9 | – | – | – | NC(N)=NCCC[C@@H]1NC(=O)[C@H](CCCN=C(N)N)NC(=O)[C@@H](Cc2ccc(O)cc2)NC(=O)CN=C(N)[C@@H](Cc2ccc3ccccc3c2)NC1=O | Non-toxic | – |
